According to PubChem BioAssay AID1745844 (Carcinogenic Potency Database (CPDB), 2022):
Active and inactive are the calls of the source. How the calls were made is not given here.

Test system: rodent lifetime carcinogenesis bioassay, tumor incidence TD50
Test: chronic cancer bioassays in animals – CPDB, compiled studies (AID 1745844)

## O=C1OC(O)C(C(Cl)Cl)=C1Cl (stereo not drawn)
rat, strain Wistar, females, in drinking water, site: adrenal gland, lesion: cortical adenoma, dosed 104 weeks, study length 104 weeks
  TD50: 10.6 mg/kg/day
rat, strain Wistar, females, in drinking water, site: all sites, lesion: lymphoma and leukemia, combined, dosed 104 weeks, study length 104 weeks
  TD50: 41.5 mg/kg/day
rat, strain Wistar, females, in drinking water, site: liver, lesion: cholangioadenoma/carcinoma, dosed 104 weeks, study length 104 weeks
  TD50: 2.73 mg/kg/day
rat, strain Wistar, females, in drinking water, site: liver, lesion: cholangiocarcinoma, dosed 104 weeks, study length 104 weeks
  TD50: 122 mg/kg/day
rat, strain Wistar, females, in drinking water, site: liver, lesion: cholangioma, dosed 104 weeks, study length 104 weeks
  TD50: 2.73 mg/kg/day
rat, strain Wistar, females, in drinking water, site: liver, lesion: hepatocellular adenoma, dosed 104 weeks, study length 104 weeks
  TD50: 16 mg/kg/day
rat, strain Wistar, females, in drinking water, site: liver, lesion: hepatocellular tumor, dosed 104 weeks, study length 104 weeks
  TD50: 14.9 mg/kg/day
rat, strain Wistar, females, in drinking water, site: mammary gland, lesion: adenocarcinoma, dosed 104 weeks, study length 104 weeks
  TD50: 14 mg/kg/day
rat, strain Wistar, females, in drinking water, site: mammary gland, lesion: fibroadenoma, dosed 104 weeks, study length 104 weeks
  TD50: 5.13 mg/kg/day
rat, strain Wistar, females, in drinking water, site: mammary gland, lesion: several types, types named in the paper, dosed 104 weeks, study length 104 weeks
  TD50: 13 mg/kg/day
rat, strain Wistar, females, in drinking water, site: thyroid gland, lesion: follicular-cell adenoma, dosed 104 weeks, study length 104 weeks
  TD50: 0.645 mg/kg/day
rat, strain Wistar, females, in drinking water, site: thyroid gland, lesion: follicular-cell carcinoma, dosed 104 weeks, study length 104 weeks
  TD50: 5.2 mg/kg/day
rat, strain Wistar, females, in drinking water, site: thyroid gland, lesion: several types, types named in the paper, dosed 104 weeks, study length 104 weeks
  TD50: 0.741 mg/kg/day
rat, strain Wistar, males, in drinking water, site: adrenal gland, lesion: cortical adenoma, dosed 104 weeks, study length 104 weeks
  TD50: 9.68 mg/kg/day
rat, strain Wistar, males, in drinking water, site: all sites, lesion: lymphoma and leukemia, combined, dosed 104 weeks, study length 104 weeks
  TD50: 53.1 mg/kg/day
rat, strain Wistar, males, in drinking water, site: liver, lesion: cholangioma, dosed 104 weeks, study length 104 weeks
  TD50: 31.4 mg/kg/day
rat, strain Wistar, males, in drinking water, site: liver, lesion: hepatocellular adenoma, dosed 104 weeks, study length 104 weeks
  TD50: 24.4 mg/kg/day
rat, strain Wistar, males, in drinking water, site: liver, lesion: hepatocellular carcinoma, dosed 104 weeks, study length 104 weeks
  TD50: 53.4 mg/kg/day
rat, strain Wistar, males, in drinking water, site: liver, lesion: hepatocellular tumor, dosed 104 weeks, study length 104 weeks
  TD50: 17.7 mg/kg/day
rat, strain Wistar, males, in drinking water, site: lung, lesion: alveolar/bronchiolar adenoma, dosed 104 weeks, study length 104 weeks
  TD50: 23.4 mg/kg/day
rat, strain Wistar, males, in drinking water, site: pancreatic islets, lesion: islet-cell adenoma, dosed 104 weeks, study length 104 weeks
  TD50: 16 mg/kg/day
rat, strain Wistar, males, in drinking water, site: pancreatic islets, lesion: several types, types named in the paper, dosed 104 weeks, study length 104 weeks
  TD50: 16.6 mg/kg/day
rat, strain Wistar, males, in drinking water, site: thyroid gland, lesion: follicular-cell adenoma, dosed 104 weeks, study length 104 weeks
  TD50: 0.532 mg/kg/day
rat, strain Wistar, males, in drinking water, site: thyroid gland, lesion: follicular-cell carcinoma, dosed 104 weeks, study length 104 weeks
  TD50: 3.25 mg/kg/day
rat, strain Wistar, males, in drinking water, site: thyroid gland, lesion: several types, types named in the paper, dosed 104 weeks, study length 104 weeks
  TD50: 0.678 mg/kg/day

## CNC(=O)ON=CC(C)(C)SC
mouse, strain B6C3F1, females, in feed, site: any site (literature study), lesion: several types, types named in the paper, dosed 103 weeks, study length 103 weeks
  carcinogen call: negative (inactive)
mouse, strain B6C3F1, females, in feed, site: liver, lesion: hepatocellular adenoma + hepatocellular carcinoma + neoplastic nodule, dosed 103 weeks, study length 103 weeks
  TD50: 52.7 mg/kg/day
mouse, strain B6C3F1, males, in feed, site: any site (literature study), lesion: several types, types named in the paper, dosed 103 weeks, study length 103 weeks
  TD50: 1.74 mg/kg/day (inactive)
mouse, strain B6C3F1, males, in feed, site: liver, lesion: hepatocellular adenoma + hepatocellular carcinoma + neoplastic nodule, dosed 103 weeks, study length 103 weeks
  TD50: 2.83 mg/kg/day
mouse, strain B6C3F1, males, in feed, site: lung, lesion: alveolar/bronchiolar adenoma + alveolar/bronchiolar carcinoma, dosed 103 weeks, study length 103 weeks
  TD50: 14.8 mg/kg/day
rat, strain Fischer 344, females, in feed, site: any site (literature study), lesion: several types, types named in the paper, dosed 103 weeks, study length 105 weeks
  carcinogen call: negative (inactive)
rat, strain Fischer 344, males, in feed, site: any site (literature study), lesion: several types, types named in the paper, dosed 103 weeks, study length 105 weeks
  TD50: 10.4 mg/kg/day (inactive)
rat, strain Fischer 344, males, in feed, site: liver, lesion: hepatocellular adenoma + hepatocellular carcinoma + neoplastic nodule, dosed 103 weeks, study length 105 weeks
  TD50: 1.33 mg/kg/day

## C=CC(O)c1ccc2c(c1)OCO2 (stereo not drawn)
mouse, strain (B6C3F1 x B6C3 background, brachymorphic) inter se = B6C3F2 br, females, in feed, site: liver, lesion: hepatoma, dosed 52 weeks, study length 69 weeks
  TD50: 1530 mg/kg/day
mouse, strain (B6C3F1 x B6C3 background, brachymorphic) inter se = B6C3F2 ph, females, in feed, site: liver, lesion: hepatoma, dosed 52 weeks, study length 69 weeks
  TD50: 53.3 mg/kg/day
mouse, strain Charles River CD1, females, in feed, site: liver, lesion: hepatocellular carcinoma, dosed 51 weeks, study length 73 weeks
  TD50: 68 mg/kg/day
mouse, strain Charles River CD1, females, in feed, site: liver, lesion: hepatoma, dosed 52 weeks, study length 69 weeks
  TD50: 49.1 mg/kg/day
mouse, strain Charles River CD1, females, in feed, site: lung, lesion: adenoma, dosed 52 weeks, study length 69 weeks
  TD50: 3670 mg/kg/day
mouse, strain Charles River CD1, females, in feed, site: subcutaneous tissue, lesion: angiosarcoma, dosed 51 weeks, study length 73 weeks
  TD50: 1550 mg/kg/day
mouse, strain Charles River CD1, males, in feed, site: interscapulum, lesion: angiosarcoma, dosed 56 weeks, study length 69 weeks
  TD50: 429 mg/kg/day
mouse, strain Charles River CD1, males, in feed, site: liver, lesion: carcinoma, dosed 56 weeks, study length 69 weeks
  TD50: 18900 mg/kg/day
mouse, strain Charles River CD1, males, in feed, site: lung, lesion: adenoma, dosed 56 weeks, study length 69 weeks
  TD50: 5470 mg/kg/day
rat, strain Charles River CD (Sprague-Dawley), males, in feed, site: forestomach, lesion: papilloma, dosed 36 weeks, study length 52 weeks
  TD50: 65.8 mg/kg/day
rat, strain Charles River CD (Sprague-Dawley), males, in feed, site: forestomach, lesion: papilloma, dosed 43 weeks, study length 69 weeks
  TD50: 59.8 mg/kg/day
rat, strain Charles River CD (Sprague-Dawley), males, in feed, site: liver, lesion: carcinoma, dosed 36 weeks, study length 52 weeks
  TD50: 12.1 mg/kg/day
rat, strain Charles River CD (Sprague-Dawley), males, in feed, site: liver, lesion: carcinoma, dosed 43 weeks, study length 69 weeks
  TD50: 16.7 mg/kg/day
rat, strain Charles River CD (Sprague-Dawley), males, in feed, site: liver, lesion: hepatocellular carcinoma, dosed 58 weeks, study length 95 weeks
  TD50: 47.8 mg/kg/day

## NC(=O)c1ccncc1
mouse, strain Swiss albino, females, in drinking water, site: liver, lesion: hepatoma, dosed 121 weeks, study length 121 weeks
  TD50: 21300 mg/kg/day (inactive)
mouse, strain Swiss albino, females, in drinking water, site: lung, lesion: several types, types named in the paper, dosed 121 weeks, study length 121 weeks
  carcinogen call: negative (inactive)
mouse, strain Swiss albino, males, in drinking water, site: lung, lesion: several types, types named in the paper, dosed 117 weeks, study length 117 weeks
  carcinogen call: negative (inactive)

## OC(c1ccc(Cl)cc1)(c1ccc(Cl)cc1)C(Cl)(Cl)Cl
mouse, strain B6C3F1, females, in feed, site: any site (literature study), lesion: several types, types named in the paper, dosed 78 weeks, study length 91 weeks
  carcinogen call: negative (inactive)
mouse, strain B6C3F1, males, in feed, site: any site (literature study), lesion: several types, types named in the paper, dosed 78 weeks, study length 91 weeks
  TD50: 59.2 mg/kg/day
mouse, strain B6C3F1, males, in feed, site: liver, lesion: hepatocellular adenoma + hepatocellular carcinoma + neoplastic nodule, dosed 78 weeks, study length 91 weeks
  TD50: 32.9 mg/kg/day
mouse, strain B6C3F1, males, in feed, site: liver, lesion: hepatocellular adenoma + hepatocellular carcinoma, dosed 78 weeks, study length 91 weeks
  TD50: 32.9 mg/kg/day
mouse, strain B6C3F1, males, in feed, site: liver, lesion: hepatocellular carcinoma, dosed 78 weeks, study length 91 weeks
  TD50: 34.8 mg/kg/day
mouse, strain B6C3F1, males, in feed, site: lung, lesion: alveolar/bronchiolar adenoma + alveolar/bronchiolar carcinoma, dosed 78 weeks, study length 91 weeks
  TD50: 616 mg/kg/day
rat, strain Osborne-Mendel, females, in feed, site: any site (literature study), lesion: several types, types named in the paper, dosed 78 weeks, study length 111 weeks
  carcinogen call: negative (inactive)
rat, strain Osborne-Mendel, males, in feed, site: any site (literature study), lesion: several types, types named in the paper, dosed 78 weeks, study length 110 weeks
  carcinogen call: negative (inactive)
rat, strain Osborne-Mendel, males, in feed, site: liver, lesion: hepatocellular adenoma + hepatocellular carcinoma + neoplastic nodule, dosed 78 weeks, study length 110 weeks
  TD50: 517 mg/kg/day

## COc1ccc(CCN2CCC(Nc3nc4ccccc4n3Cc3ccc(F)cc3)CC2)cc1
mouse, strain Swiss, females, in feed, site: any site (literature study), lesion: several types, types named in the paper, dosed 78 weeks, study length 78 weeks
  TD50: 164 mg/kg/day (inactive)
mouse, strain Swiss, females, in feed, site: liver, lesion: hepatocellular adenoma, dosed 78 weeks, study length 78 weeks
  carcinogen call: negative (inactive)
mouse, strain Swiss, females, in feed, site: lung, lesion: one or several types, types not named, dosed 78 weeks, study length 78 weeks
  carcinogen call: negative (inactive)
mouse, strain Swiss, males, in feed, site: any site (literature study), lesion: several types, types named in the paper, dosed 78 weeks, study length 78 weeks
  carcinogen call: negative (inactive)
mouse, strain Swiss, males, in feed, site: liver, lesion: hepatocellular adenoma, dosed 78 weeks, study length 78 weeks
  TD50: 8770 mg/kg/day (inactive)
mouse, strain Swiss, males, in feed, site: liver, lesion: hepatocellular carcinoma, dosed 78 weeks, study length 78 weeks
  TD50: 788 mg/kg/day (inactive)
mouse, strain Swiss, males, in feed, site: lung, lesion: one or several types, types not named, dosed 78 weeks, study length 78 weeks
  carcinogen call: negative (inactive)
rat, strain Charles River Crl:COBS(WI)BR, females, in feed, site: any site (literature study), lesion: several types, types named in the paper, dosed 105 weeks, study length 105 weeks
  carcinogen call: negative (inactive)
rat, strain Charles River Crl:COBS(WI)BR, females, in feed, site: liver, lesion: neoplastic nodule, dosed 105 weeks, study length 105 weeks
  TD50: 309 mg/kg/day (inactive)
rat, strain Charles River Crl:COBS(WI)BR, males, in feed, site: any site (literature study), lesion: several types, types named in the paper, dosed 105 weeks, study length 105 weeks
  TD50: 32.5 mg/kg/day (inactive)
rat, strain Charles River Crl:COBS(WI)BR, males, in feed, site: liver, lesion: neoplastic nodule, dosed 105 weeks, study length 105 weeks
  carcinogen call: negative (inactive)

## CCN(CC)c1ccc(N=Nc2cc[n+]([O-])cc2)cc1
rat, strain Sprague-Dawley, males, in feed, site: liver, lesion: one or several types, types not named, dosed 52 weeks, study length 52 weeks
  carcinogen call: positive

## C#C[C@]1(O)CC[C@H]2[C@@H]3CCc4cc(O)ccc4[C@H]3CC[C@@]21C
rat, strain Slc-Wistar, females, by gavage, site: liver, lesion: hepatocellular carcinoma, dosed 52 weeks, study length 52 weeks
  TD50: 0.2 mg/kg/day

## CCC(CC)C(=O)NC(N)=O
rat, strain Fischer 344, males, in feed, site: kidney, lesion: tubular-cell adenoma, dosed 71 weeks, study length 71 weeks
  TD50: 30.4 mg/kg/day
